According to paper PMC8393474, “The Interaction of Hemin, a Porphyrin Derivative, with the Purified Rat Brain 2-Oxoglutarate Carrier” (Biomolecules, 2021):

Target: T1, 2-oxoglutarate carrier (OGC) (Rattus norvegicus, UniProt P97700)
T1 construct: gene Slc25a11; native carrier purified from rat brain mitochondria, reconstituted into proteoliposomes
T1 sequence (P97700 2-314): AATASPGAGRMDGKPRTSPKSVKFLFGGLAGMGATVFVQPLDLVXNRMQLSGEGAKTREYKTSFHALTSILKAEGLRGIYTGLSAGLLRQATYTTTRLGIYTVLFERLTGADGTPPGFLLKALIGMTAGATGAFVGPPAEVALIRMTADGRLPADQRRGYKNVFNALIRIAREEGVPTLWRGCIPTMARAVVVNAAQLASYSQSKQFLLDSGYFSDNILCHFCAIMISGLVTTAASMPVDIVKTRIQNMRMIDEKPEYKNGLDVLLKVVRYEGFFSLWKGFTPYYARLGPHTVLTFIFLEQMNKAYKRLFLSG
Experiment: inhibition of […] 2-oxoglutarate or […] malate uptake in proteoliposomes reconstituted with purified OGC; Lineweaver-Burk and Dixon plots
Assay type: biochemical

SMILES: C=CC1=C(C)C2=Cc3c(C=C)c(C)c4[n]3[Fe]([Cl])[n]3c(c(C)c(CCC(=O)O)c3=CC3=NC(=C4)C(C)=C3CCC(=O)O)=CC1=N2 [hemin]
- IC50: 1580 ± 220 nM
